Measurements from patent publication US20100093616A1 (priority 2005, published 2010).

Assays:
Type in all cases: in vivo, Lewis Rats
[1] = tested on: Experimental Autoimmune Encephalytis (EAE); experiment: Prophylactic scheme in EAE animal model (Example 2); conditions: for Clinical scores maximum / Clinical scores minimum / Incidence (%): EGF/GHRP-6 200-740, EGF 200, GHRP-6 740 μg/kg/day; for N° of perivascular inflammatory infiltrates (Means ± SD): brain and spinal cord, day 40, EGF/GHRP-6 200-740, EGF 200, GHRP-6 740 μg/kg/day; for Incidence (%): i.p. days -10 to -1 before first immunization, 8 rats per group
Excerpt: (§1) This prophylactic scheme was followed for 10 days (−10 to −1 day before the first immunization), using the intraperitoneal administration route. Clinical scores was based on the following grading: 0; no symptom, 1; tail paralysis, 2; paralysis of any of the hind limbs, 3; full paralysis of the hind limbs, 4; complete paralysis of the fore and hind limbs 5; moribund or death. Weight loss and vesical and rectal sphincter incontinency, which are also clinical signs of the disease, are scored by adding 0.5 to the clinical index previously described. Forty days after the first immunization the animals were anesthetized and euthanized, the encephalon and spinal cord were processed for histopathological study (10% de formalin, H & E y Luxol Blue staining). For the histopathological analysis the following parameters were consider: number and size of perivascular inflammatory infiltrates, number of demyelination lesions, number of apoptotic neurons and glial cells and astrocytes reactivity. The microscopic study was blindly conducted.

[2] = tested on: Experimental Autoimmune Encephalytis (EAE); experiment: Therapeutical effect in EAE biomodel (Example 1); conditions: therapeutical scheme; for N° of perivascular inflammatory infiltrates (Means ± SD): brain and spinal cord, day 40; for Incidence (%): i.p. 10 days from day 10 after first immunization, EGF/GHRP-6 200-740 μg/kg/day, EGF 200 μg/kg/day, GHRP-6 740 μg/kg/day, 8 rats per group
Procedure: as §1, with “Female Lewis Rats (130 g), were subcutaneously immunized with guinea pig spinal cord homogenate (5 mg) in PBS (50%) and complete Freund adjuvant (50%), during days 0 and 6. […] This” for “This”, “therapeutical” for “prophylactic”, “days,” for “days (−10 to −1 day before the first immunization),”, “using” for “using the”, “administration.” for “administration route.”

[3] = tested on: Experimental Autoimmune Encephalytis (EAE); experiment: Dose study of the combination in EAE model, therapeutical scheme (Example 3); conditions: EGF component of the combination
Procedure: Looking for a range of doses for the pharmaceutical combination that would be efficient for the therapeutic effects, it was used in the afore mentioned EAE model Female Lewis Rats (130 g), were subcutaneously immunized with guinea pig spinal cord homogenate (5 mg) in PBS (50%) and complete Freund adjuvant (50%), during days 0 and 6.
as §1, with “therapeutical” for “prophylactic”, “days,” for “days (−10 to −1 day before the first immunization),”, “using” for “using the”, “administration.” for “administration route.”

[4] = i.p. days -10 to -1, EGF/GHRP-6 200-740, EGF 200, GHRP-6 740 μg/kg/day
[5] = EGF/GHRP-6 200-740, EGF 200, GHRP-6 740 μg/kg/day
[6] = i.p. 10 days, EGF/GHRP-6 200-740, EGF 200, GHRP-6 740 μg/kg/day
[7] = i.p. 10 days, EGF/GHRP-6 200-740, EGF 200, GHRP-6 740 μg/kg/day, scale 0-5

Substance | Clinical scores maximum ([1]; scale 0-5) | Clinical scores minimum ([1]; scale 0-5) | N° of perivascular inflammatory infiltrates (Means ± SD) [1] | Days of Debut (Mean ± SD) [1, 4] [days] | Clinical scores Means ± SD (mean clinical index) ([1]; i.p. days -10 to -1, EGF/GHRP-6 200-740, EGF 200, GHRP-6 740 μg/kg/day, scale 0-5) | Incidence (%) [1] [%] | N° of perivascular inflammatory infiltrates (Means ± SD) [2, 5] | Incidence (%) [2] [%] | Days of Debut (Mean ± SD) [2, 6] [days] | Disease duration [2, 6] | Clinical Scores Mean ± SD (mean clinical index) [2, 7] | Clinical scores maximum [2, 7] | Clinical scores minimum [2, 7] | dose range that maintains usefulness of the combination for protection against induction of EAE [3] [µg/kg/day]
His-D-Trp-Ala-Trp-D-Phe-Lys-NH sub 2 [GHRP-6] | 4 | 1 | 2.7 ± 1.95 | 11.7 ± 2.3 | 2.7±1.03 | 100 | 2.25 ± 1.25 | 100 | 13.7 ± 2.3 | 15.5 ± 6.7 | 1.5±1.6 | 4 | 0.5 | –
Epidermal Growth Factor [EGF] | 4 | 1 | 4 ± 1.6 | 11.5 ± 0.57 | – | 100 | 4.5 ± 1.9 | 100 | 12.5 ± 0.57 | 12.7 ± 4.1 | – | – | 1 | 50 to 400
